Assay results reported in paper PMC8826081, “Three-Carbon Linked Dihydroartemisinin-Isatin Hybrids: Design, Synthesis and Their Antiproliferative Anticancer Activity” (Frontiers in Pharmacology, 2022).

Key:
A549 lung cancer cells = assay: MTT antiproliferative activity against A549; type: cell-based; conditions: Homo sapiens; MTT assay, drug-sensitive A549
Description: (§1) 3-(4,5-dimethylthiazol-2-yl)-2,5-diphenyltetrazolium bromide (MTT) assay was used to determined the antiproliferative activity of dihydroartemisinin-isatin hybrids 5a-e and 6a-j with three-carbon linker against A549, multidrug-resistant A549/DOX and A549/DDP lung cancer cell lines as well as cytotoxicity towards normal lung epithelial cell line (BEAS-2B). The inhibitory effects were expressed in terms of half maximal inhibitory concentration (IC50) values.
(§2) A549, A549/DOX, and A549/DDP lung cancer cells (2×10^3) were plated in each well of a 96-well plate and were allowed to adhere and spread for 24 h. The […] were added to a final concentration of 100 µM, and the cells were cultured for 24 h at 37 °C. 3-(4,5-dimethyl-2-thiazolyl)-2,5-diphenyltetrazolium bromide (MTT) solution (10 µL) was added to each well, and the cultures were incubated for an additional 4 h. A further 100 µL of […] was added and incubation continued overnight. The absorbance at 540 nm was determined in each well with a 96-well plate reader. The growth of the treated cells was compared with that of untreated cells.

[1] = test system: A549/DOX (doxorubicin-resistant A549 cells); assay: MTT antiproliferative activity against doxorubicin-resistant A549; type: cell-based; conditions: for IC50: Homo sapiens, MTT assay, doxorubicin-resistant A549 cells
Description: as §1, §2

[2] = test system: A549/DDP (cisplatin-resistant A549 cells); assay: MTT antiproliferative activity against cisplatin-resistant A549; type: cell-based; conditions: for IC50: Homo sapiens, MTT assay, cisplatin-resistant A549 cells
Description: as §1, §2

in vitro = conditions: human
Protocol: as §1
(§3) The compounds were dissolved in DMSO with concentrations from 1024 to 1 μg/mL. The NIH/3T3 cells were maintained in culture medium at 37 °C under 5% CO2 atmosphere. Cells were seeded in 96-well plates (1×10^4 cell per well) and allowed to recover for 24 h. After 72 h of exposure, cells were harvested and cell viability was assessed by MTT assay. The CC50 values were calculated by Bliss analysis.

[3] = test system: BEAS-2B normal lung epithelial cell line; assay: MTT cytotoxicity towards normal lung epithelial cells; conditions: IC50(BEAS-2B)/IC50(A549)
Protocol: as §1, §3

[4] = Metabolic stability in mouse liver microsomes; type: in vitro ADME; conditions: in vitro stability
[5] = Metabolic stability in human liver microsomes; type: in vitro ADME; conditions: in vitro stability
[6] = Pharmacokinetic properties in CD-1 mice; type: in vivo; conditions: mouse, plasma; for bioavailability: 30 mg/kg, read-out: F (bioavailability); for AUC / Cmax / clearance / half-life / Tmax: single intravenous dose of 30 mg/kg; for Tmax: read-out: tmax (peak time) (converted)
Protocol: CD-1 mice model was administered with single intravenous […]) dose of 30 mg/kg to test the pharmacokinetic properties of hybrid 6a, e.
CD-1 mice mice (20-25 g) were used in the pharmacokinetic study, and each treatment group had 3 mice which were dosed with […] suspension at 30 mg/kg by single intravenous (iv) administration. Compounds were suspended in 0.5% CMC for iv, and blood was collected from the jugular vein of each mouse at the following time points: 0.25, 0.5, 1, 2, 4, 6, 8 and 24 h after […] administration. Total area under the concentration time curve (AUC), the elimination half-time (t1/2), the peak concentration (Cmax) and the time to reach peak concentration (Tmax) of samples were determined directly from the experimental data using WinNonlin V6.2.1.

[7] = test system: A549, A549/DOX and A549/DDP lung cancer cell lines; assay: MTT antiproliferative activity, summarised over the three lung cancer cell lines; type: cell-based; conditions: for IC50: MTT assay, span of values over the three lung cancer cell lines, read-out: IC50 (range over A549, A549/DOX and A549/DDP); for times superior to cisplatin and doxorubicin: against multidrug-resistant A549/DOX and A549/DDP; for RI (drug resistance index: IC50(MDR A549)/IC50(A549)): span over RI1 and RI2
Description: as §1, §2

Compound	IC50 (A549 lung cancer cells) [µM]	IC50 [1] [µM]	RI1 (Resistance index: IC50(A549/DOX)/IC50(A549)) [1]	IC50 [2] [µM]	IC50 (in vitro) [µM]	SI (Selectivity index: IC50(BEAS-2B)/IC50(A549)) [3]	Liver microsomes Mouse [4] [%]	Liver microsomes Human [5] [%]	bioavailability [6] [%]	AUC [6] [ng·h/mL]	Cmax [6] [µM]	clearance [6] [mL/min/kg]	half-life [6] [h]	Tmax [6] [h]	IC50 [7] [µM]	times superior to cisplatin and doxorubicin [7]	RI (drug resistance index: IC50(MDR A549)/IC50(A549)) [7]	RI2 (Resistance index: IC50(A549/DDP)/IC50(A549)) ([2]; IC50(A549/DDP)/IC50(A549))
C[C@@H]1CC[C@H]2[C@@H](C)C(OCCCN3C(=O)C(=NO)c4ccccc43)O[C@@H]3O[C@@]4(C)CC[C@@H]1[C@]32OO4 (stereo partly drawn) [6a, 3-(hydroxyimino)-1-(3-(((3R,5aS,6R,8aS,9R,12R,12aR)-3,6,9-trimethyldecahydro-12H-3,12-epoxy[1,2]dioxepino[4,3-i]isochromen-10-yl)oxy)propyl)indolin-2-one]	5.72	7.35	1.28	9.84	> 100	>17.4	70	62	39.7	2350	18.9	62.3	3.1	0.267	5.72 to 9.84	1.5–10.8 times	1.03–1.66	
C[C@@H]1CC[C@H]2[C@@H](C)C(OCCCN3C(=O)C(=NNC(N)=S)c4cc(F)ccc43)O[C@@H]3O[C@@]4(C)CC[C@@H]1[C@]32OO4 (stereo partly drawn) [6e, 2-(5-fluoro-2-oxo-1-(3-(((3R,5aS,6R,8aS,9R,12R,12aR)-3,6,9-trimethyldecahydro-12H-3,12-epoxy[1,2]dioxepino[4,3-i]isochromen-10-yl)oxy)propyl)indolin-3-ylidene)hydrazine-1-carbothioamide]	5.99	8.93	1.49	6.17	> 100	>16.6	54	51	30.8	1670	10.7	44.8	4.7	0.2	5.72 to 9.84	1.5–10.8 times	1.03–1.66	1.03
